Data reported in PubChem BioAssay AID2060489 (Molecular Pharmacology Branch, DTP, NCI, 2025).
Where “and” joins values, the source holds several entries; their conditions need not be identical. Equal entries are not always repeated.

Tested on: 922993-354-T-J3-PDC complex spheroids, viability
Assay: Anticancer human tumor 922993-354-T-J3-PDC patient-derived endometrial carcinoma cell line growth inhibition [GQUAD]
Details: for viability, T/C: stronger effect = lower value
Source text: DNA G-quadruplex Stabilizer Agents in Combinations in Complex Spheroids
A high-throughput screen of multi-cell type tumor spheroids was designed to identify active combinations of DNA G-quadruplex stabilizer agents and targeted small molecules. Complex spheroids include a stromal component modeled by human endothelial cells (HUVEC) and fibroblasts modeled by human mesenchymal stem cells (MSCs). The concentration ranges selected for each drug and investigational agent were based upon clinically achievable concentrations if the clinical Cmax of the agent was known.
Compounds. The drugs and investigational agents: pidnarulex (CX-5461; NSC782164), APTO-253 (NSC789042), BRACO-19 (NSC847499), peposertib (NSC802822), ceralasertib (NSC780249), elimusertib (NSC800525), camonsertib (NSC841442), AZD-1390 (NSC803789), olaparib (NSC753686), talazoparib (NSC767125), ART-558 (NSC835418), sotorasib (NSC818433), MRTX-1133 (NSC836407), SN-38 (NSC673596), topotecan (NSC609699), etoposide (NSC141540), doxorubicin (NSC123127), gemcitabine (NSC613327), 5-fluorouracil (NSC19893), paclitaxel (NSC125973), vemurafenib (NSC761431), panobinostat (NSC761190), R-306465 (JNJ-16241199; NSC773264), adavosertib (NSC754352), TP-3654 (NSC805149), carboplatin (NSC241240), KSQ-4279 (NSC840948), and staurosporine (NSC755774) were obtained from the National Cancer Institute (NCI) Developmental Therapeutics Program Chemical Repository (34). The FDA-approved anticancer drug set is available from the NCI Developmental Therapeutics Program. […] The stock solutions were prepared in dimethyl sulfoxide (DMSO, Sigma-Aldrich, St. Louis, MO, cat. D2650) at 800-fold the tested concentration and stored at -70 degrees C prior to their use. All drugs and investigational agents were tested over a range starting from a high concentration at or near the clinical Cmax and decreasing in half-log increments. If the clinical Cmax for an agent had not been determined, the highest concentration tested was 10 microM.
2.3 Cell Culture. All cells were maintained in an incubator at 37 degrees C and 5% CO2 with 95% humidity. The PDC lines were cultured according to standard operating procedures established by the NCI PDMR. All PDCs were thawed and cultured in Matrigel-coated flasks prepared with a working solution of 1X Ham's F-12 nutrient mix, without supplementation (Invitrogen, cat. 11765054), 100 U/mL penicillin-streptomycin (Invitrogen, cat. 15140122), and 2.5% Matrigel (Corning Inc., cat. 354248) for the first three passages. The 857933-349-R-J2-PDC line was cultured in 6C/Colon 1B media, which includes advanced DMEM/F-12 (Thermo Fisher Scientific, cat. 12634028), 10 mM HEPES (Thermo Fisher Scientific, cat. 15630080), 1X GlutaMAX supplement (Thermo Fisher Scientific, cat. 35050061), 0.1 mg/mL primocin (InvivoGen, cat. ant-pm-2), 10% defined fetal bovine serum, heat inactivated (HyClone Laboratories Inc., cat. SH30070.03HI), 50% L-WRN conditioned media (ATCC, cat. CRL-3276), 1.25 mM N-Acetyl-L-cysteine (Sigma-Aldrich, cat. A9165), 10 mM nicotinamide (Sigma-Aldrich, cat. N0636), 1X B-27 supplement (Thermo Fisher Scientific, cat. 17504044), 1X N-2 supplement (Thermo Fisher Scientific, cat. 17502048), 10 microM Y-27632 dihydrochloride (Tocris Bioscience, cat. 1254), and 50 ng/mL human EGF recombinant protein (Thermo Fisher Scientific, cat. PHG0311). The 485176-168-R4-J1-PDC line was cultured in Panc media, which includes all 6C/Colon 1B media components plus 100 ng/mL human FGF-10 (Thermo Fisher Scientific, cat. 100-26), 500 nM SB-431542 (Selleckchem, cat. S1067), and gastrin (Tocris, cat. 3006).
[…]
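Also: spheroids exposed to compounds for seven days.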
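For viability, T/C in this document: 100% = DMSO vehicle control viability.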

Structure (SMILES): COc1ccc([C@@H](O)c2cc(-c3ncnc4cc(N5CCOCC5)ccc34)c(F)cc2Cl)nn1
- viability, T/C (compound 0.0316 µM): 93.2% and 109% and 98.5%
- viability, T/C (compound 0.1 µM): 99.4% and 61.7% and 94.8%
- viability, T/C (compound 0.316 µM): 103% and 87% and 92.8%
- viability, T/C (compound 1 µM): 93.4% and 83.4% and 86.5%
- viability, T/C (compound 3.16 µM): 92% and 94.4% and 85%
- viability, T/C (compound 10 µM): 69.3% and 69% and 52.9%
- IC50 (curve of compound): > 10 µM

Structure (SMILES): COc1cc(C2c3cc4c(cc3C(OC3OC5COC(C)OC5C(O)C3O)C3COC(=O)C23)OCO4)cc(OC)c1O (stereo unspecified)
- viability, T/C (compound 0.0316 µM): 88.4% and 94.8% and 88.6%
- viability, T/C (compound 0.1 µM): 89% and 80.4% and 92%
- viability, T/C (compound 0.316 µM): 76.1% and 86.3% and 92.8%
- viability, T/C (compound 1 µM): 89.5% and 99.4% and 80.7%
- viability, T/C (compound 3.16 µM): 74.5% and 95.4% and 76.1%
- viability, T/C (compound 10 µM): 56.4% and 62.6% and 37%
- IC50 (curve of compound): > 10 µM and 6.75 µM

Structure (SMILES): Nc1ccn(C2OC(CO)C(O)C2(F)F)c(=O)n1 (stereo unspecified)
- viability, T/C (compound 0.0316 µM): 22.6% and 12.1% and 26.3%
- viability, T/C (compound 0.1 µM): 22% and 11.3% and 23.6%
- viability, T/C (compound 0.316 µM): 28% and 12.5% and 23.7%
- viability, T/C (compound 1 µM): 24.6% and 13.1% and 30.6%
- viability, T/C (compound 3.16 µM): 23.4% and 12.9% and 18.8%
- viability, T/C (compound 10 µM): 20.9% and 11.3% and 20.8%
- IC50 (curve of compound): < 0.0316 µM

Structure (SMILES): CCCS(=O)(=O)Nc1ccc(F)c(C(=O)c2c[nH]c3ncc(-c4ccc(Cl)cc4)cc23)c1F
- viability, T/C (compound 0.0316 µM): 101% and 91.3% and 97.1%
- viability, T/C (compound 0.1 µM): 81% and 90.5% and 83.1%
- viability, T/C (compound 0.316 µM): 99.1% and 89.8% and 101%
- viability, T/C (compound 1 µM): 87.5% and 81% and 76%
- viability, T/C (compound 3.16 µM): 78.5% and 68.7% and 87.7%
- viability, T/C (compound 10 µM): 37.7% and 68.9% and 71%
- IC50 (curve of compound): 7.09 µM and > 10 µM

Structure (SMILES): CC(C)n1c(=O)n(C)c2cnc3cc(F)c(-c4ccc(OCCCN5CCCCC5)nc4)cc3c21
- viability, T/C (compound 0.0316 µM): 96.3% and 98.6% and 87.9%
- viability, T/C (compound 0.1 µM): 105% and 85.5% and 77.3%
- viability, T/C (compound 0.316 µM): 70.1% and 91.7% and 63.2%
- viability, T/C (compound 1 µM): 96% and 84.2% and 81.9%
- viability, T/C (compound 3.16 µM): 77.9% and 79.6% and 84.8%
- viability, T/C (compound 10 µM): 49.7% and 55.9% and 41.8%
- IC50 (curve of compound): > 10 µM and 7.75 µM

Structure (SMILES): CC1COCCN1c1cc(C2(S(C)(=N)=O)CC2)nc(-c2ccnc3[nH]ccc23)n1 (stereo unspecified)
- viability, T/C (compound 0.0316 µM): 99.8% and 96.6% and 97.3%
- viability, T/C (compound 0.1 µM): 93.4% and 96.7% and 96.8%
- viability, T/C (compound 0.316 µM): 91.8% and 84.6% and 95.6%
- viability, T/C (compound 1 µM): 106% and 98.6% (2×)
- viability, T/C (compound 3.16 µM): 93.7% and 129% and 92.5%
- viability, T/C (compound 10 µM): 65.3% and 70.4% and 60.7%
- IC50 (curve of compound): > 10 µM

Structure (SMILES): CC1COCCN1c1cc(C2(O)CC3CCC(C2)O3)c2cnn(-c3ccn[nH]3)c2n1 (stereo unspecified)
- viability, T/C (compound 0.0316 µM): 93.2% and 97.1% and 107%
- viability, T/C (compound 0.1 µM): 80.6% and 62.3% and 68.6%
- viability, T/C (compound 0.316 µM): 54.2% and 56.9% and 63.5%
- viability, T/C (compound 1 µM): 41.3% and 36% and 37.9%
- viability, T/C (compound 3.16 µM): 26.8% and 19.8% and 23.5%
- viability, T/C (compound 10 µM): 18.6% and 15.3% and 15.6%
- IC50 (curve of compound): 0.514 µM and 0.326 µM and 0.46 µM

Structure (SMILES): COc1ncnc(C2CC2)c1-c1ncc2cnn(Cc3ccc(-c4nc(C(F)(F)F)cn4C(C)C)cc3)c2n1 + Cc1[nH]c2ccc(F)cc2c1-c1nc2c3cccnc3c3ncccc3c2[nH]1
- IC50 (curve of first compound, second compound 0.0316 µM): > 10 µM
- IC50 (curve of first compound, second compound 0.1 µM): > 10 µM
- IC50 (curve of first compound, second compound 0.316 µM): > 10 µM
- IC50 (curve of first compound, second compound 1 µM): > 10 µM
- IC50 (curve of first compound, second compound 3.16 µM): > 10 µM
- IC50 (curve of first compound, second compound 10 µM): > 10 µM
- viability, T/C (second compound 0.0316 µM, first compound 0.0316 µM): 94.6%
- viability, T/C (second compound 0.0316 µM, first compound 0.1 µM): 87.3%
- viability, T/C (second compound 0.0316 µM, first compound 0.316 µM): 80.7%
- viability, T/C (second compound 0.0316 µM, first compound 1 µM): 82.3%
- viability, T/C (second compound 0.0316 µM, first compound 3.16 µM): 90.7%
- viability, T/C (second compound 0.0316 µM, first compound 10 µM): 88.8%
- viability, T/C (second compound 0.1 µM, first compound 0.0316 µM): 123%
- viability, T/C (second compound 0.1 µM, first compound 0.1 µM): 99.2%
- viability, T/C (second compound 0.1 µM, first compound 0.316 µM): 90.1%
- viability, T/C (second compound 0.1 µM, first compound 1 µM): 70.1%
- viability, T/C (second compound 0.1 µM, first compound 3.16 µM): 96.2%
- viability, T/C (second compound 0.1 µM, first compound 10 µM): 93.2%
- viability, T/C (second compound 0.316 µM, first compound 0.0316 µM): 97.2%
- viability, T/C (second compound 0.316 µM, first compound 0.1 µM): 111%
- viability, T/C (second compound 0.316 µM, first compound 0.316 µM): 94.7%
- viability, T/C (second compound 0.316 µM, first compound 1 µM): 92.2%
- viability, T/C (second compound 0.316 µM, first compound 3.16 µM): 91.4%
- viability, T/C (second compound 0.316 µM, first compound 10 µM): 79.8%
- viability, T/C (second compound 1 µM, first compound 0.0316 µM): 98.2%
- viability, T/C (second compound 1 µM, first compound 0.1 µM): 86.6%
- viability, T/C (second compound 1 µM, first compound 0.316 µM): 107%
- viability, T/C (second compound 1 µM, first compound 1 µM): 88.2%
- viability, T/C (second compound 1 µM, first compound 3.16 µM): 110%
- viability, T/C (second compound 1 µM, first compound 10 µM): 95.1%
- viability, T/C (second compound 3.16 µM, first compound 0.0316 µM): 80.2%
- viability, T/C (second compound 3.16 µM, first compound 0.1 µM): 116%
- viability, T/C (second compound 3.16 µM, first compound 0.316 µM): 105%
- viability, T/C (second compound 3.16 µM, first compound 1 µM): 124%
- viability, T/C (second compound 3.16 µM, first compound 3.16 µM): 123%
- viability, T/C (second compound 3.16 µM, first compound 10 µM): 90.6%
- viability, T/C (second compound 10 µM, first compound 0.0316 µM): 104%
- viability, T/C (second compound 10 µM, first compound 0.1 µM): 103%
- viability, T/C (second compound 10 µM, first compound 0.316 µM): 116%
- viability, T/C (second compound 10 µM, first compound 1 µM): 92.3%
- viability, T/C (second compound 10 µM, first compound 3.16 µM): 95.7%
- viability, T/C (second compound 10 µM, first compound 10 µM): 97.6%
